What is called IC50 is the concentration that gives 50% inhibition. A high value points to weaker potency in that assay. One may read the EC50 as the concentration that produces a half-maximal response. Lower therefore signals greater potency.

Here are results for 15 molecules from patent publication US7314861B2, “Melanin-concentrating hormone analogs” (priority 2001, dated 2008).

In one experiment the target is human MCH-1R (Homo sapiens, UniProt Q99705). Put plainly: Aequorin bioluminescence functional assay, MCH-1R. To be noted: for MCH-1R Activation %: % Activation at 10 μM, aequorin functional assay.
In a further experiment the target is human MCH-R2 (Homo sapiens, UniProt Q969V1). In words: Aequorin bioluminescence functional assay, MCH-2R. To be noted: for MCH-2R Activation %: % Activation at 10 μM; for MCH-2R Activation % / EC50: aequorin functional assay; for EC50: MCH-2R EC50 (nM); for selective activity at MCH-2R over MCH-1R: greater binding and/or activation at MCH-2R than at MCH-1R.
Another experiment addresses human MCH-2R (Homo sapiens, UniProt Q969V1). In words: Radiolabeled MCH-R binding assay (SPA based), MCH-2R. Conditions: MCH-2R IC50 (nM), Table 3.

Structures are written as SMILES. Where a SMILES comes first, the peptide text is derived from it. Bridges are numbered along the chain shown (N, C = ends).

human MCH-R2, sequence (Q969V1 whole entry): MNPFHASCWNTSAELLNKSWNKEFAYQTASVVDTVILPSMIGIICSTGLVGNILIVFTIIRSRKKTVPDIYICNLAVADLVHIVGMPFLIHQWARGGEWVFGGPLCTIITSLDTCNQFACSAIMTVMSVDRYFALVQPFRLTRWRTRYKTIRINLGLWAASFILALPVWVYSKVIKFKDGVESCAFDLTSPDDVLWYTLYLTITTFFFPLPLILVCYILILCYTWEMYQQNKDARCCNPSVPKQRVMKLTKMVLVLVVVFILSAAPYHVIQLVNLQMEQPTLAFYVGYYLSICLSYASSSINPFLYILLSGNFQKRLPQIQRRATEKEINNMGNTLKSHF
human MCH-1R, sequence (Q99705 whole entry): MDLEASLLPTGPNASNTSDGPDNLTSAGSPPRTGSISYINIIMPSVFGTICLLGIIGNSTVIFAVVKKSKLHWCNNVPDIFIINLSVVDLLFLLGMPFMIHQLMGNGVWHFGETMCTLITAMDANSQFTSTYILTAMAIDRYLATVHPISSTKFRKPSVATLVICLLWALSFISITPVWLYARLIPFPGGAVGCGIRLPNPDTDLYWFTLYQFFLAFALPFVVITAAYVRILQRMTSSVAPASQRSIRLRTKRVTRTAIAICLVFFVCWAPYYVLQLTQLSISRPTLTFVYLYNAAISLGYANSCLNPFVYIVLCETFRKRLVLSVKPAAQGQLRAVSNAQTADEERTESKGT
human MCH-2R, sequence (Q969V1 whole entry): as the sequence (Q969V1 whole entry) above
Experimental for human MCH-1R: (§1) The aequorin bioluminescence assay can be used to measure the activity of G protein-coupled receptors that couple through the Gα protein subunit family consisting of Gq and G11. Such coupling leads to phospholipase C activation, intracellular calcium mobilization and protein kinase C activation.
(§2) Following approximately 40 hours of expression the apo-aequorin in the cells was charged for 4 hours with coelenterazine (10 μM) under reducing conditions (300 μM reduced glutathione) in ECB buffer (140 mM NaCl, 20 mM KCl, 20 mM HEPES-NaOH [pH=7.4], 5 mM glucose, 1 mM MgCl2, 1 mM CaCl2, 0.1 mg/ml bovine serum albumin).
(§3) The cells were harvested, washed once in ECB medium and resuspended to 500,000 cells/ml. 100 μl of cell suspension (corresponding to 5×10^4 cells) was then injected into the test plate containing MCH or MCH analogs, and the integrated light emission was recorded over 30 seconds, in 0.5 second units. 20 μL of lysis buffer (0.1% final Triton X-100 concentration) was then injected and the integrated light emission recorded over 10 seconds, in 0.5 second units. The “fractional response” values for each well were calculated by taking the ratio of the integrated response to the initial challenge to the total integrated luminescence including the Triton X-100 lysis response.
Experimental for human MCH-2R: Cell membranes were prepared on ice. Each T-75 flask was rinsed twice with 10 ml of Enzyme-free Cell Dissociation Buffer (Specialty Media, Lavallette, N.J.), and the cell monolayer was detached in an additional 10 ml of Enzyme-free Cell Dissociation Buffer by incubation at room temperature for 10 minutes. Dissociated cells were centrifuged (500×g for 10 minutes at 4° C.), resuspended in 5 ml homogenization buffer (10 mM Tris-HCl, pH 7.4, 0.01 mM Pefabloc, 10 μM phosphoramidon, 40 μg/ml bacitracin) and then homogenized using a glass homogenizer (10-15 strokes). The homogenate was centrifuged for 10 minutes (1,000×g at 4° C.). The resulting supernatant was then centrifuged at 38,700×g for 15 minutes at 4° C. Pelleted membranes were resuspended (passed through 25 gauge needle 5 times), snap-frozen on liquid nitrogen, and stored at −80° C. until use.
For the SPA-based assay, WGA-PVT beads (NEN Life Sciences Products) were resuspended in Dulbecco's PBS with calcium and magnesium (500 mg beads in 4 ml PBS). […] The suspension was mixed gently for 20 minutes, 12.3 ml of assay buffer and protease inhibitors were added (final concentration given): 2 μg/ml leupeptin, 10 μM phosphoramidon, 40 μg/ml bacitracin, 5 μg/ml aprotinin, 0.1 mM Pefabloc.
Coated beads were kept on ice until use. […] Binding reactions were allowed to proceed at room temperature for 3 hours. Quantitation was performed by scintillation counting (TopCount device).
Experimental for human MCH-R2: as §1, §2, §3

For the molecule `CSCC[C@@H]1NC(=O)[C@@H](NC(=O)[C@H](CCCNC(=N)N)NC(=O)[C@H](CC(C)C)NC(=O)[C@H](CCSC)NC(=O)[C@H](CC(=O)O)NC(=O)[C@H](Cc2ccccc2)NC(=O)[C@@H](N)CC(=O)O)CSSC[C@@H](C(=O)N[C@@H](Cc2c[nH]c3ccccc23)C(=O)N[C@@H](CCC(N)=O)C(=O)N[C@@H](C)C(=O)O)NC(=O)[C@@H]2CCCN2C(=O)[C@H](CCCNC(=N)N)NC(=O)[C@H](Cc2ccc(O)cc2)NC(=O)[C@H](C(C)C)NC(=O)[C@H](CCCNC(=N)N)NC(=O)CNC(=O)[C@H](CC(C)C)NC1=O` [compound 56] (H-DFDMLRCMLGRVYRPCWQA-OH; disulfide 7-16; N-terminus and C-terminus assumed), at human MCH-1R (Table 3), the “MCH-1R Activation %” value came to 100%. The “MCH-2R Activation %” value at human MCH-R2 (Table 3) is on record as 99%.

As to `CSCC[C@@H]1NC(=O)[C@@H](NC(=O)[C@H](CCCNC(=N)N)NC(=O)[C@H](CC(C)C)NC(=O)[C@H](CCSC)NC(=O)[C@H](CC(=O)O)NC(=O)[C@H](Cc2ccccc2)NC(=O)[C@@H](N)CC(=O)O)CSSC[C@@H](C(=O)N[C@@H](Cc2c[nH]c3ccccc23)C(=O)N[C@@H](C)C(=O)N[C@H](C(=O)O)C(C)C)NC(=O)[C@@H]2CCCN2C(=O)[C@H](CCCNC(=N)N)NC(=O)[C@H](Cc2ccc(O)cc2)NC(=O)[C@H](C(C)C)NC(=O)[C@H](CCCNC(=N)N)NC(=O)CNC(=O)[C@H](CC(C)C)NC1=O` [compound 55] (H-DFDMLRCMLGRVYRPCWAV-OH; disulfide 7-16; N-terminus and C-terminus assumed), the “MCH-1R Activation %” value on human MCH-1R (Table 3) was found to be 99%. On human MCH-R2 (Table 3), the “MCH-2R Activation %” value is listed as 97%. The molecule also came in with an IC50 at human MCH-2R of 9.5 nM.

`CSCC[C@@H]1NC(=O)[C@@H](NC(=O)[C@H](CCCNC(=N)N)NC(C)=O)CSSC[C@@H](C(N)=O)NC(=O)[C@@H]2CCCN2C(=O)[C@H](CCCNC(=N)N)NC(=O)[C@H](Cc2ccc(O)cc2)NC(=O)[C@H](C(C)C)NC(=O)[C@H](CCCNC(=N)N)NC(=O)[C@H](CO)NC(=O)[C@H](CC(C)C)NC1=O` [compound 10]: the “MCH-1R Activation %” value at human MCH-1R (Table 1) was determined as 104%. In addition, the “MCH-2R Activation %” value on human MCH-R2 (Table 1) stood at 95%.

With `CSCC[C@@H]1NC(=O)[C@@H](NC(=O)[C@H](CCCNC(=N)N)NC(C)=O)CSSC[C@@H](C(N)=O)NC(=O)[C@@H]2CCCN2C(=O)[C@H](CCCNC(=N)N)NC(=O)[C@H](Cc2ccc(O)cc2)NC(=O)[C@H](C(C)C)NC(=O)[C@H](CCCNC(=N)N)NC(=O)[C@H](CC(C)C)NC(=O)[C@H](CC(C)C)NC1=O` [compound 8], the “MCH-1R Activation %” value on human MCH-1R (Table 1) came out at 106%. In addition, the “MCH-2R Activation %” value on human MCH-R2 (Table 1) is 80%.

On to `CSCC[C@@H]1NC(=O)[C@@H](NC(=O)[C@H](CCCNC(=N)N)NC(C)=O)CSSC[C@@H](C(N)=O)NC(=O)[C@@H]2CCCN2C(=O)[C@H](CCCNC(=N)N)NC(=O)[C@H](Cc2ccc(O)cc2)NC(=O)[C@H](C(C)C)NC(=O)[C@H](CCCNC(=N)N[N+](=O)[O-])NC(=O)CNC(=O)[C@H](CC(C)C)NC1=O` [compound 25], for which the EC50 at human MCH-1R is above 1000 nM; on human MCH-R2 (Table 1, 293-AEQ17 cells) it was above 10000 nM. Further, on human MCH-R2 (Table 1), the “MCH-2R Activation %” value is reported as 39%. Further, at human MCH-R2, the “selective activity at MCH-2R over MCH-1R” value is on record as “selectively active”.

On to `CSCC[C@@H]1NC(=O)[C@@H](NC(=O)[C@H](CCCNC(=N)N)NC(C)=O)CSSC[C@@H](C(N)=O)NC(=O)[C@@H]2CCCN2C(=O)[C@H](CCCNC(=N)N)NC(=O)[C@H](Cc2ccc(O)cc2)NC(=O)[C@H](C(C)C)NC(=O)[C@H](CCCNC(=N)N)NC(=O)[C@H](c2ccccc2)NC(=O)[C@H](CC(C)C)NC1=O` [compound 12], for which the EC50 is above 10000 nM at human MCH-1R and 140 nM at human MCH-R2 (Table 1, 293-AEQ17 cells). Further, the “MCH-1R Activation %” value on human MCH-1R (Table 1) is reported as 0.1%. Moreover, the “MCH-2R Activation %” value on human MCH-R2 (Table 1) came out at 80%. Further, the “selective activity at MCH-2R over MCH-1R” value on human MCH-R2 is listed as “selectively active”.

On to `CSCC[C@@H]1NC(=O)[C@@H](NC(=O)[C@H](C)NC(=O)[C@H](CC(C)C)NC(=O)[C@H](CCSC)NC(=O)[C@H](CC(=O)O)NC(=O)[C@H](Cc2ccccc2)NC(=O)[C@@H](N)CC(=O)O)CSSC[C@@H](C(=O)N[C@@H](Cc2c[nH]c3ccccc23)C(=O)N[C@@H](CCC(N)=O)C(=O)N[C@H](C(=O)O)C(C)C)NC(=O)[C@@H]2CCCN2C(=O)[C@H](CCCNC(=N)N)NC(=O)[C@H](Cc2ccc(O)cc2)NC(=O)[C@H](C(C)C)NC(=O)[C@H](CCCNC(=N)N)NC(=O)CNC(=O)[C@H](CC(C)C)NC1=O` [compound 46] (H-DFDMLACMLGRVYRPCWQV-OH; disulfide 7-16; N-terminus and C-terminus assumed), for which, at human MCH-1R (Table 3), the “MCH-1R Activation %” value worked out at 81%. In addition, the “MCH-2R Activation %” value at human MCH-R2 (Table 3) amounted to 76%.

As for `CSCC[C@@H]1NC(=O)[C@@H](NC(=O)[C@H](CCCNC(=N)N)NC(C)=O)CSSC[C@@H](C(N)=O)NC(=O)[C@@H]2CCCN2C(=O)[C@H](CCCNC(=N)N)NC(=O)[C@H](Cc2ccc(O)cc2)NC(=O)[C@H](C(C)C)NC(=O)[C@H](CCCNC(=N)N)NC(=O)[C@@H](CC2CCCCC2)NC(=O)[C@H](CC(C)C)NC1=O` [compound 16], the concentration giving a half-maximal response (EC50) on human MCH-1R was above 10000 nM. At human MCH-1R (Table 1), the “MCH-1R Activation %” value came to 0.1%. The “selective activity at MCH-2R over MCH-1R” value on human MCH-R2 is recorded as “selectively active”.

For `CSCC[C@@H]1NC(=O)[C@@H](NC(=O)[C@H](CCCNC(=N)N)NC(=O)[C@H](CC(C)C)NC(=O)[C@H](CCSC)NC(=O)[C@H](CC(=O)O)NC(=O)[C@H](Cc2ccccc2)NC(=O)[C@@H](N)CC(=O)O)CSSC[C@@H](C(=O)N[C@@H](Cc2c[nH]c3ccccc23)C(=O)N[C@@H](CCC(N)=O)C(=O)N[C@H](C(=O)O)C(C)C)NC(=O)[C@@H]2CCCN2C(=O)[C@H](CCCNC(=N)N)NC(=O)[C@H](Cc2ccc(O)cc2)NC(=O)[C@H](C(C)C)NC(=O)[C@H](C)NC(=O)CNC(=O)[C@H](CC(C)C)NC1=O` [compound 49] (H-DFDMLRCMLGAVYRPCWQV-OH; disulfide 7-16; N-terminus and C-terminus assumed), the “MCH-1R Activation %” value at human MCH-1R (Table 3) is 24%. Besides, the EC50 at human MCH-R2 (Table 3) was above 1000 nM.

Take `CSCC[C@H](NC(=O)[C@H](CC(=O)O)NC(=O)[C@H](C)NC(=O)[C@@H](N)CC(=O)O)C(=O)N[C@@H](CC(C)C)C(=O)N[C@@H](CCCNC(=N)N)C(=O)N[C@H]1CSSC[C@@H](C(=O)N[C@@H](Cc2c[nH]c3ccccc23)C(=O)N[C@@H](CCC(N)=O)C(=O)N[C@H](C(=O)O)C(C)C)NC(=O)[C@@H]2CCCN2C(=O)[C@H](CCCNC(=N)N)NC(=O)[C@H](Cc2ccc(O)cc2)NC(=O)[C@H](C(C)C)NC(=O)[C@H](CCCNC(=N)N)NC(=O)CNC(=O)[C@H](CC(C)C)NC(=O)[C@H](CCSC)NC1=O` [compound 42] (H-DADMLRCMLGRVYRPCWQV-OH; disulfide 7-16; N-terminus and C-terminus assumed): the “MCH-1R Activation %” value at human MCH-1R (Table 3) is recorded as 97%. The “MCH-2R Activation %” value at human MCH-R2 (Table 3) is recorded as 102%.

Turning to `CSCC[C@@H]1NC(=O)[C@@H](NC(=O)[C@H](CCCNC(=N)N)NC(=O)[C@H](CC(C)C)NC(=O)[C@H](CCSC)NC(=O)[C@H](CC(=O)O)NC(=O)[C@H](Cc2ccccc2)NC(=O)[C@H](C)N)CSSC[C@@H](C(=O)N[C@@H](Cc2c[nH]c3ccccc23)C(=O)N[C@@H](CCC(N)=O)C(=O)N[C@H](C(=O)O)C(C)C)NC(=O)[C@@H]2CCCN2C(=O)[C@H](CCCNC(=N)N)NC(=O)[C@H](Cc2ccc(O)cc2)NC(=O)[C@H](C(C)C)NC(=O)[C@H](CCCNC(=N)N)NC(=O)CNC(=O)[C@H](CC(C)C)NC1=O` [compound 41] (H-AFDMLRCMLGRVYRPCWQV-OH; disulfide 7-16; N-terminus and C-terminus assumed), at human MCH-1R (Table 3), the “MCH-1R Activation %” value is recorded as 96%. On human MCH-R2 (Table 3), the “MCH-2R Activation %” value is 96%.

Turning to `CSCC[C@@H]1NC(=O)[C@@H](NC(=O)[C@H](CCCNC(=N)N)NC(C)=O)CSSC[C@@H](C(N)=O)NC(=O)[C@@H]2CCCN2C(=O)[C@H](CCCNC(=N)N)NC(=O)[C@H](Cc2ccc(O)cc2)NC(=O)[C@H](C(C)C)NC(=O)[C@H](CCCNC(=N)N)NC(=O)[C@@H](C)NC(=O)[C@H](CC(C)C)NC1=O` [compound 13], the “MCH-1R Activation %” value on human MCH-1R (Table 1) turned out to be 40%. Further, it took 16 nM to reach a half-maximal effect at human MCH-R2 (Table 1, 293-AEQ17 cells) (EC50). The “MCH-2R Activation %” value on human MCH-R2 (Table 1) was found to be 103%. Also, the “selective activity at MCH-2R over MCH-1R” value at human MCH-R2 was “selectively active”.

Turning to `CSCC[C@@H]1NC(=O)[C@@H](NC(=O)[C@H](CCCNC(=N)N)NC(C)=O)CSSC[C@@H](C(N)=O)NC(=O)[C@@H]2CCCN2C(=O)[C@H](CCCNC(=N)N)NC(=O)[C@H](Cc2ccc(O)cc2)NC(=O)[C@H](C(C)C)NC(=O)[C@H](CCCCNC(=N)N)NC(=O)CNC(=O)[C@H](CC(C)C)NC1=O` [compound 24], the “MCH-1R Activation %” value on human MCH-1R (Table 1) is 72%. The same molecule showed an EC50 at human MCH-R2 (Table 1, 293-AEQ17 cells) above 10000 nM. In addition, at human MCH-R2 (Table 1), the “MCH-2R Activation %” value is reported as 43%.

As to `CSCC[C@@H]1NC(=O)[C@@H](NC(=O)[C@H](CCCNC(=N)N)NC(C)=O)CSSC[C@@H](C(N)=O)NC(=O)[C@@H]2CCCN2C(=O)[C@H](CCCNC(=N)N)NC(=O)[C@H](Cc2ccc(O)cc2)NC(=O)[C@H](C(C)C)NC(=O)[C@H](CCCNC(=N)N)NC(=O)[C@H](C)NC(=O)[C@H](CC(C)C)NC1=O` [compound 7], the “MCH-1R Activation %” value on human MCH-1R (Table 1) is 104%. Further, the “MCH-2R Activation %” value at human MCH-R2 (Table 1) was determined as 97%.

Turning to `CSCC[C@@H]1NC(=O)[C@@H](NC(=O)[C@H](CCCNC(=N)N)NC(=O)[C@H](CC(C)C)NC(=O)[C@H](CCSC)NC(=O)[C@H](CC(=O)O)NC(=O)[C@H](Cc2ccccc2)NC(=O)[C@@H](N)CC(=O)O)CSSC[C@@H](C(=O)N[C@@H](Cc2c[nH]c3ccccc23)C(=O)N[C@@H](CCC(N)=O)C(=O)N[C@H](C(=O)O)C(C)C)NC(=O)[C@@H]2CCCN2C(=O)[C@H](CCCNC(=N)N)NC(=O)[C@H](C)NC(=O)[C@H](C(C)C)NC(=O)[C@H](CCCNC(=N)N)NC(=O)CNC(=O)[C@H](CC(C)C)NC1=O` [compound 51] (H-DFDMLRCMLGRVARPCWQV-OH; disulfide 7-16; N-terminus and C-terminus assumed), at human MCH-1R (Table 3), the “MCH-1R Activation %” value is 20%. Further, the EC50 on human MCH-R2 (Table 3) was above 1000 nM.
